Data as given in paper PMC5697638, “Identification of a Potent Phosphoinositide 3‐Kinase Pan Inhibitor Displaying a Strategic Carboxylic Acid Group and Development of Its Prodrugs” (Chemmedchem, 2017).

Experiments:
[1] = metabolic stability in rat liver microsomes (RLM); assay type: in vitro ADME; conditions: 50 μM substrate, 60 min
[2] = stability in mouse plasma; assay type: in vitro ADME; conditions: mouse, mouse plasma, 50 μM substrate, 30 min incubation, 37 °C; read-out: Mouse plasma t 1/2
Description: Twelve esters were prepared (see the Experimental Section for their synthesis and the Supporting Information for chromatographic methods) and evaluated in terms of metabolic stability. For this task, a combined approach based on microsomal and plasmatic stability assays was exploited considering the relevance of the plasmatic and hepatic tissues in esterase activity. Microsomal stability of the selected esters was evaluated by monitoring the disappearance of the substrate incubated in rat liver microsomes (RLM) at 50 μM concentration, in the presence of NADPH. In Table 4, the percentage of the remaining substrate, after incubation (t=60 min), with respect to the initial amount is reported. Overall, the compounds underwent a relevant metabolic transformation, and the substrate depletion ranged from 0 (for 76) to 100 % (for 70). This is mainly due to hydrolysis of the ester function, whereas the metabolites arising from the oxidation catalyzed by the NADPH‐dependent monooxygenase system were negligible from a quantitative point of view. Indeed, the main metabolite formed during the incubation of the esters was corresponding carboxyl derivative 37. […] Moreover, whereas CH2‐pyridin‐4‐yl ester 70 was completely metabolized, corresponding benzyl derivative 65 and piperonyl derivative 72 were more hydrolytically stable, and their residual substrates were 53 and 83 %, respectively. The hydrolytic stability of the selected esters was also evaluated by monitoring the depletion of the substrate incubated at a 50 μM concentration in mouse plasma over a period of 30 min. As expected, the plasmatic metabolic fate of the esters was characterized by the formation of 37 as the only metabolite (see Figure S4). The rate constant k [min^−1], derived for the substrate peak area versus time curve (single‐exponential decay equation—GraphPad Prism software, Inc., San Diego, CA (USA); see Figure S5) was used to calculate the in vitro half‐life t 1/2 [min], and the values are reported in Table 4. […]
Stability of PI3K inhibitors in mouse plasma
An aliquot of 460 µL of blank plasma spiked with substrate (50 µM, final concentration, DMSO 5%) was incubated at 37 °C for 30 minutes. Aliquots (70 µL) of the incubation took at 0-2-5-10-20, and 30 minutes were diluted with 140 µL of acetonitrile, homogenized, and centrifuged at 13,000 rpm for five minutes. Supernatants (20 µL) were injected onto HPLC.
A Shimadzu HPLC system (Shimadzu, Kyoto, Japan), consisting of two LC-10AD Vp module pumps, an SLC-10A Vp system controller, an SIL-10AD Vp autosampler, and a DGU-14-A on-line degasser was used for the analysis. All the chromatographic separations were performed on a Phenomenex Luna C18 5µm (150 x 4.6 mm i.d.) (Phenomenex srl, Castel Bolognese, Italy) as a stationary phase protected by a Luna C18 SecurityGuard (Phenomenex srl). The SPD-M10Avp photodiode array detector was used to detect the analyte at 254 nm. LC Solution 1.24 software was used to process the chromatograms. Aliquots (20 µL) of supernatants obtained from incubations were injected onto the HPLC system and eluted with a mobile phase (flow rate: 1 mL/min) consisting of solvent A- 0.5% aqueous formic acid solution and solvent B- acetonitrile/methanol 80:20.
The eluants were filtered through a 0.45-µm pore size polyvinylidene difluoride membrane […]
The following gradients programs were used: […]

hPI3Kγ (PIK3CG) = target: T1, hPI3Kγ (PIK3CG) (Homo sapiens, UniProt P48736); assay: lipid kinase assay (ADP-Glo), PI3Kγ; assay type: biochemical
T1 construct: purchased ProQinase, Germany 1163‐0000‐1
T1 sequence (P48736 whole entry): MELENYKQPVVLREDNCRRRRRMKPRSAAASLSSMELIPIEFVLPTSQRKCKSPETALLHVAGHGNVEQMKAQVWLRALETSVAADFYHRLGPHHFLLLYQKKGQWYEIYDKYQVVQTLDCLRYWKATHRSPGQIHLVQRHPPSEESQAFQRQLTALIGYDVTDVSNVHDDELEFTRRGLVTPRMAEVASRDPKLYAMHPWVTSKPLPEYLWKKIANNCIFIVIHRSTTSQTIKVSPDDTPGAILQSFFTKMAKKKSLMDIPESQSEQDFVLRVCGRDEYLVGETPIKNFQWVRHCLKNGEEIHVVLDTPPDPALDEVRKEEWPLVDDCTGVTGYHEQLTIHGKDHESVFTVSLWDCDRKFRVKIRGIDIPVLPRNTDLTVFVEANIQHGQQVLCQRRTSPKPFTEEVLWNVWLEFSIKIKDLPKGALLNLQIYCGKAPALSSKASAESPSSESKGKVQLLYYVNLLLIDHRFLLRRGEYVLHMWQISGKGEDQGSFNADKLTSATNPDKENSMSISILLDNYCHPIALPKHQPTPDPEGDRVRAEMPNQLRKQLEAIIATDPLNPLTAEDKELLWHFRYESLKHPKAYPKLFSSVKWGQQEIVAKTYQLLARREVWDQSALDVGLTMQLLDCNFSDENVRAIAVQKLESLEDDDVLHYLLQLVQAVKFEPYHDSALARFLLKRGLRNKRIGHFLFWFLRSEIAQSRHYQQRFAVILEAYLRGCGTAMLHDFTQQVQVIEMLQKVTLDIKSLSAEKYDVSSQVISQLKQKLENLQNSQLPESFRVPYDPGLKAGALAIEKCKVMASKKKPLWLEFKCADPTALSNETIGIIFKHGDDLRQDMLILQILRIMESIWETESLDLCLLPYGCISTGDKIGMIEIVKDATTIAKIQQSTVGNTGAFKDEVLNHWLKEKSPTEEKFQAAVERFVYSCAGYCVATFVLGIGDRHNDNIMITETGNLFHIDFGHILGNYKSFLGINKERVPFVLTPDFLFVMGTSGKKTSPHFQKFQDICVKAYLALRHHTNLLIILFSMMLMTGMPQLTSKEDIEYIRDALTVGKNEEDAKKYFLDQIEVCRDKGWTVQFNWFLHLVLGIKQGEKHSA
Description: In vitro selection, lipid kinase assay: To determine the inhibitory activity of the new molecular entities on PI3K enzyme, a lipid kinase assay was performed: recombinant proteins (30 ng), human PI3Kα (PIK3CA/PIK3R1, #1161‐1165‐1 ProQinase–Germany), hPI3Kβ (PIK3CB wt/PIK3R1, #1168‐1165‐1 ProQinase, Germany), hPI3Kγ (PIK3CG, #1163‐0000‐1 ProQinase, Germany), hPI3Kδ (PIK3CD/PIK3R1, #1162–1165‐1 ProQinase, Germany), hPI3K‐C2α (PIK3C2A, #14‐906 Merck Millipore_Merck KGaA, Germany), hPI3K‐C2β (PIK3C2B, #14‐907 Merck Millipore_Merck KGaA, Germany), hPI3K‐c2γ (PIK3C2G, #1207‐0000‐1 ProQinase, Germany), and hVps34 (PIK3C3, #1160‐0000‐1 ProQinase, Germany), were incubated in kinase buffer {12.5 μL; 20 mM Tris‐HCl pH 7.5, 10 mM MgCl2, 10 μM ATP, 0.05 mg mL^−1 BSA, 0.5 mM EDTA, 5 mM HEPES pH 7.5, for PI3Kα,PI3Kβ, PI3Kγ, PI3Kδ, PI3KC‐2α, and PI3KC‐2γ; 15 mM MnCl2, 5 mM EGTA, 100 μM ATP, 50 mM HEPES pH 7.5, 100 mM NaCl, and 0.03 % CHAPS for PI3K‐C2β and VPS34 {BSA=bovine serum albumin; EDTA=ethylenediaminetetraacetic acid; HEPES=4‐(2‐hydroxyethyl)‐1‐piperazineethanesulfonic acid; EGTA=ethylene glycol‐bis(2‐aminoethylether)‐N,N,N′,N′‐tetraacetic acid; CHAPS=3‐[(3‐cholamidopropyl)dimethylammonio]‐1‐propanesulfonate}. In the reaction, the ATP concentration used for different PI3Ks was defined on the basis of the Michaelis–Menten kinetics of each enzyme, provided by the supplier. Reaction was performed in presence of 0.5 mg mL^−1 lipid micelles (1:1 phosphatidylinositol/phosphatidylserine) and in the absence (DMSO alone) or presence of increasing concentrations of each compound (from 0.1 nM to 30 μM). The mixture was kept at room temperature (RT) for 30 min for PI3Kα, PI3Kβ, PI3Kγ, PI3Kδ, PI3KC‐2α, and PI3KC‐2γ and for 1 h for PI3K‐C2β and PI3K‐C3. The amount of ADP produced in the reaction was measured by using the ADP‐Glo Kinase Assay kit from Promega (#V9102) and a luminescence reader (Glomax multi detection system, Promega, model number 9301‐010).
The residual PI3K lipid kinase activity in the presence of each molecule at different concentrations was related to the control, intended as the recombinant protein in the presence of DMSO alone and was expressed as a percentage. To derive the IC50 value, all data (% of lipid kinase activity) were plotted on a dose–response curve (Graph Pad software), and the IC50 was calculated by using nonlinear regression fit (equation [log agonist] versus response).

COC(=O)c1cccc(Cn2cc(-c3cccc4c(=O)cc(N5CCOCC5)[nH]c34)nn2)c1 [Compound 64, Methyl 3‐{[4‐(2‐morpholino‐4‐oxo‐1,4‐dihydroquinolin‐8‐yl)‐1H‐1,2,3‐triazol‐1‐yl]methyl}benzoate]
% residual substrate, RLM (without NADPH) [1]: 32% | half-life at 50 µM [2]: 13.3 min

O=C(O)c1cccc(Cn2cc(-c3cccc4c(=O)cc(N5CCOCC5)[nH]c34)nn2)c1 [Compound 37, 3‐{[4‐(2‐Morpholino‐4‐oxo‐1,4‐dihydroquinolin‐8‐yl)‐1H‐1,2,3‐triazol‐1‐yl]methyl}benzoic acid]
IC50 (hPI3Kγ (PIK3CG); Table 2, mean of at least three determinations, 95 % confidence intervals): 186 ± 43 nM | inhibition at 1 µM (hPI3Kγ (PIK3CG); determined at 1 μM, at least triplicate, read-out: Inhibitory activity, PI3K isoform γ): > 50%
